Assay results published in patent US11129782B2, “Derivatives of PPD useful for coloring hair and skin” (National University of Singapore, priority 2017, dated 2021).
Where “and” joins values, the source holds several entries; their conditions need not be identical. Identical values can stand only once. Like-named read-outs stand apart in the source and are kept apart here.

Legend:
HaCaT cells = assay: In vitro cell cytotoxicity (MTT) assay on HaCaT cells; format: cell-based, human; conditions: for IC50: 72 h incubation, MTT
Description: HaCaT (human, adult, low calcium, high temperature, human adult skin keratinocytes) cells were obtained from the IMB (Institute of Medical Biology) Skin Cell Bank. Fetal bovine serum (FBS), Dulbecco's minimum essential medium (DMEM) and trypsin EDTA solution were purchased from GE healthcare life sciences, Utah. Penicillin/streptomycin, dimethyl sulfoxide (DMSO), and phosphate buffered saline (PBS) were from Fisher Scientific (Singapore). Para-phenylenediamine (PPD) was purchased from Sigma Aldrich (Singapore). PPD analogues such as Dimer, trimer, ethyl hexyl para-phenylenediamine (EHPPD), hexyl para-phenylenediamine (HPPD), Bandrowski base (BB) were synthesized in house.
Cell viability was essentially determined using the MTT assay as described in the literature. The HaCaT cells were grown in DMEM with 10% FBS and 1% penicillin/streptomycin. The cells in T-75 cm^2 culture flasks were incubated with 5% CO2 at 37° C. in a humidified incubator. The HaCaT cells were grown to expected confluency and then they were harvested by trypsinizing the cell with 0.25% trypsin/EDTA and incubated at 37° C. for 5 min to obtain the complete cell detachment. After the incubation, cell pellets were resuspended, and washed twice with 1×PBS. The cell suspension in 1×PBS was counted and adjusted to 1×10^5/mL. A HaCaT keratinocyte suspension (100 μL in 1×PBS) with a cell concentration of 1×10^5 cells/mL) and a test solution (100 μL in milli-Q water) were combined in each well of two 96-well plates. Test solutions with a desired concentration were prepared by serial dilutions of the stock solutions with 1×PBS.
For the cytotoxicity experiment, cells were seeded at a density of 5×10^3 in 200 ul of medium into each well of 96-well plates. Cells were seeded as three sets of four replicates for each concentration. After 24 h of incubation, the cells were washed with PBS and cultured for 72 h with 200 ul of 10% FBS containing DMEM medium, together with the different concentrations of the test compounds ranging from 500 μM to 1.9 μM for PPD and analogues 1-5 and standard in a serial dilution. Then the medium was removed and 100 μl of MTT [3-(4,5-dimethylthiazol-2yl)-2,5-diphenyl-2H-tetrazolium bromide](1 mg/ml) (Alfa Aesar, Singapore) in PBS was added. At the end of 4 h incubation, the plates were removed from the incubator and plates were shaken for 5 min. The absorbance at 570 nm was determined using Bio-Tek plate reader. The cell viability rates were calculated from absorbance readings and represented as percentages of control value (untreated cells).

[1] = tested on: cysteine and lysine peptides
[2] = tested on: cysteine and lysine peptides; assay: Direct Peptide Reactivity Assay, mean of cysteine and lysine depletion (FIG. 12); conditions: for Mean peptide depletion: mean of cysteine (1:10) and lysine (1:50), FIG. 12; for Sensitizing potential predicted from mean peptide depletion: cysteine 1:10 / lysine 1:50 model
[3] = Skin permeation in vertical Franz diffusion cells; format: in vitro ADME, porcine; conditions: 8 h
Experimental: Porcine ears were generously provided by the NUS Department of Surgery. The ears were frozen at −80° C. until use (up to 3 months) and thawed at room temperature on the day preceding the experiment. Prior to the experiment, the skin was separated from the cartilage and dermatomed to a thickness of ˜1.0 mm using an Acculan™ 3Ti dermatome (Aesculap, Inc., B. Braun, USA).
The PPD and derivatives were dissolved in deionized water at 1% w/v. The PPD and PPD derivatives 1-5 solutions were purged with argon gas to minimize oxidation of the donor solution.
Skin penetration studies were carried out using vertical Franz diffusion cells (PermeGear, USA) immersed in a 37° C. water bath. The donor and receptor volumes were 900 µL and 5 mL, respectively; the mean surface area of penetration was 0.64 cm^2. Upon insertion of the skin pieces into the Franz cells, the skin was equilibrated for 45 min with PBS in the receptor compartment. After equilibration, the skin's trans-epidermal water loss (TEWL) was measured using an Aquaflux AF300 (Biox, UK) to assess the integrity of the skin's stratum corneum barrier. The donor solution, consisting of PPD or derivative 1-5 (n=3 Franz cells each), was then added to the donor compartment and the penetration experiments were conducted for 8 h. The receptor solutions were continuously stirred with magnetic stirrers. At fixed time points, aliquots of 200 μL were taken from the receptor solution of each cell and the receptor solution topped up with 200 μL of fresh PBS. At the end of the experiment, the donor and receptor solutions were removed and the cells dismantled. For the purpose of mass balance on the PPD, PPD derivatives 1-5 the skin pieces and swabs of their outer surfaces were collected and stored in acetonitrile for PPD or derivative 1-5 extraction. The donor solution as well as PBS used to thoroughly wash each part of the Franz cells were also collected.
PPD, PPD derivatives 1-5 and metabolite concentrations in all permeation and mass balance samples were measured by LCMS. PPD steady state fluxes and permeability coefficients were calculated by fitting the solution to Fick's second law of diffusion at the steady state to the linear part of each experimental cumulative amount curve.
The validated method LCMS was applied to quantify PPD, PPD derivative 1-5 and metabolites from skin permeation study samples. FIGS. 3 and 4 show LCMS spectra for the identification of PPD and PPD derivatives 1 and 2 and metabolites from skin permeation study experiment.

[4] = Solubility observed when preparing dyes; format: physicochemical; conditions: water / organic solvents
IL-8 = IL-8 ELISA on THP-1 cell supernatants; format: cell-based, human; conditions: preliminary ELISA, CV75
Experimental: For cytokine profiling in THP-1, supernatants from wells were collected and then used for cytokine analysis by a Chemokine immunosorbent assay Bio-legend ELISA Max kit. The levels of available IL-8 protein from THP-1 cell supernatants was estimated using this kit which are regulated upon activation of THP-1 model. Surface receptor expression of human CD-86, CD-54, MHC-I and IL-T3 were analyzed by flow cytometry using standard BD FACS analyzer with PE and FITC fluorescent labeled antibodies from Biolegend and e Bioscience.
In order to understand the effect of modified PPD hairdyes on THP-1 immune sensitization, a certain degree of Cytotoxicity at CV75% viable where 25% cell death is required before evaluation of supernatants in THP-1 models for expression of cytokine IL-8 and receptor expression of CD86, CD54, MHC-I and IL-T3 surface receptors upon treatment with standard PPD and modified hair dye compounds. Most allergens show a specific dose-dependent alteration of CD86 and/or CD54 expression or secretion of cytokine profiles. But depending on chemical, the alteration pattern may vary.

[5] = tested on: cysteine peptide (Ac-RFAACAA-COOH); assay: Direct Peptide Reactivity Assay, cysteine peptide; conditions: for % of Cysteine depletion, Avg / % of Cysteine depletion, Rep 2 / % of Cysteine depletion, Rep 3 / Reactivity Class: 1:10; for % of Cysteine depletion, Rep 1: peptide 0.02 mM : test chemical 0.2 mM (1:10); for Reactivity Class: cysteine
Experimental: For cysteine DPRA, an additional step was performed.
(§1) The mass spectrometric analysis was performed by use of a AB SCIEX QTRAP 5500 tandem mass spectrometry (MS/MS) system (AB SCIEX, Framingham, Mass., USA) operating in triple quadrupole positive mode (ESI+) equipped with an AB Sciex Turbo Ion Spray interface. Acquisition and analysis of data were performed with Analyst software ver. 1.6.2 (Applied Biosystems).

[6] = tested on: lysine peptide (Ac-RFAAKAA-COOH); assay: Direct Peptide Reactivity Assay, lysine peptide; conditions: for % of Lysine depletion, Avg / % of Lysine depletion, Rep 2 / % of Lysine depletion, Rep 3 / Reactivity Class: 1:50; for % of Lysine depletion, Rep 1: peptide 0.02 mM : test chemical 1 mM (1:50); for Reactivity Class: lysine
Experimental: as §1

Structure (SMILES)	IC50 (HaCaT cells) [µM]	Mean peptide depletion [2] [%]	Solubility (in words) [4]	Sensitizing potential predicted from mean peptide depletion [2]	IL-8 expression (IL-8)	% of Cysteine depletion, Avg ([5]; 20 min) [%]	% of Cysteine depletion, Rep 2 ([5]; 20 min) [%]	% of Cysteine depletion, Rep 3 ([5]; 20 min) [%]	% of Cysteine depletion, Rep 1 ([5]; 20 min) [%]	% of Cysteine depletion, Avg ([5]; 24 h) [%]	% of Cysteine depletion, Rep 2 ([5]; 24 h) [%]	% of Cysteine depletion, Rep 3 ([5]; 24 h) [%]	% of Cysteine depletion, Rep 1 ([5]; 24 h) [%]	Reactivity Class ([5]; 20 min)	Reactivity Class ([5]; 24 h)	% of Lysine depletion, Avg ([6]; 20 min) [%]	% of Lysine depletion, Rep 2 ([6]; 20 min) [%]	% of Lysine depletion, Rep 3 ([6]; 20 min) [%]	% of Lysine depletion, Rep 1 ([6]; 20 min) [%]	% of Lysine depletion, Avg ([6]; 24 h) [%]	also measured
Cc1ccc(NCc2ccc(-c3ccc(Nc4ccc(N)cc4)cc3)cc2)cc1 [PPD derivative 9, 4-Amino-4′-[(4-tolylaminomethyl)phenyl]diphenylamine]	6.8	17.9	–	–	–	–	–	–	–	–	–	–	–	–	–	–	–	–	–	–	Sensitizing potential predicted from mean peptide depletion [1]: weak sensitizer
Nc1ccc(Nc2ccc(N)cc2)cc1 [PPD derivative 1, 4,4′-Diaminodiphenylamine]	49.3	–	showed solubility in a mixture of 10% methanol in water	high sensitizing agents	increased expression	41.5	40.5	41.5	42.6	69.4	69.6	69.3	69.5	Moderate	High	7.79	6.48	9.01	7.89	23.8	% Parent compound Penetrated (mean) ([3]; 1% W/V applied): 0.00314%; % Parent compound Recovery (mean) ([3]; 1% W/V applied): 93.85%; % converted to metabolite (mean) ([3]; 1% W/V applied): 0.0104%; Penetration profile PPD vs derivatives (times less than PPD) ([3]; ratio of PPD penetration to that of the compound, listed as PPD 1): 51 and 51.6; Fold increase in IC50 compared to PPD (HaCaT cells): ~2 fold; % of Lysine depletion, Rep 2 ([6]; 24 h): 28%; % of Lysine depletion, Rep 3 ([6]; 24 h): 22.3%; % of Lysine depletion, Rep 1 ([6]; 24 h): 21%; Reactivity Class ([6]; 20 min): Low; Reactivity Class ([6]; 24 h): Moderate
NC1=CC(=Nc2ccc(N)cc2)C(N)=CC1=Nc1ccc(N)cc1 [Bandrowski Base, reference compound]	6.09	38.9	limited solubility in water	moderate sensitizer	increased expression	44.2	44.5	45.5	42.5	70.7	69.9	70.4	71.8	High	High	6.7	7.89	2.54	9.58	5.6	% of Lysine depletion, Rep 2 ([6]; 24 h): 6.0%; % of Lysine depletion, Rep 3 ([6]; 24 h): 5.5%; % of Lysine depletion, Rep 1 ([6]; 24 h): 5.4%; Reactivity Class ([6]; 20 min): Low; Reactivity Class ([6]; 24 h): Low
